Data set [1] has as its target p38 MAPKα (MAPK14) (Homo sapiens (Human), UniProt Q16539). Nature of the data set: p38 MAPKα enzyme inhibition (Method 2), Z-LYTE FRET. Format: biochemical. Here is the method: (§1) The enzyme inhibitory activities of compounds disclosed herein are determined by FRET using synthetic peptides labelled with both donor and acceptor fluorophores (Z-LYTE, Invitrogen Ltd., Paisley, UK).
The following two assay variants can be used for determination of p38 MAPKα inhibition.
The inhibitory activities of test compounds against the p38 MAPKα isoform (MAPK14: Invitrogen) are evaluated indirectly by determining the level of activation/phosphorylation of the down-stream molecule, MAPKAP-K2. The p38 MAPKα protein (80 ng/mL, 2.5 μL) is mixed with the test compound (2.5 μL of either 4 μg/mL, 0.4 μg/mL, 0.04 μg/mL or 0.004 μg/mL) for 2 hr at RT. […] The mixture is incubated for 1 hr at RT. Development reagent (protease, 5 μL) is added for 1 hr prior to detection in a fluorescence microplate reader (Varioskan® Flash, ThermoFisher Scientific).
This method follows the same steps as Method 1 above, but utilises a higher concentration of the p38 MAPKα protein (2.5 μL of 200 ng/mL protein instead of 2.5 μL of 80 ng/mL protein) for mixing with the test compound (tested at either 1 μg/mL, 0.1 μg/mL, 0.01 μg/mL or 0.001 μg/mL).
(§2) In all cases, the site-specific protease cleaves non-phosphorylated peptide only and eliminates the FRET signal. Phosphorylation levels of each reaction are calculated using the ratio of coumarin emission (donor) over fluorescein emission (acceptor), for which high ratios indicate high phosphorylation and low ratios indicate low phosphorylation levels.

Data set [2] addresses c-Src (Homo sapiens (Human), UniProt P12931). Put plainly: c-Src enzyme inhibition, Z-LYTE FRET. The class given is biochemical. How it is done:
as §1
The inhibitory activities of compounds of the invention against c-Src and Syk enzymes (Invitrogen), are evaluated in a similar fashion to that described hereinabove. The relevant enzyme (3000 ng/mL or 2000 ng/mL respectively, 2.5 μL) is incubated with the test compound (either 1 μg/mL, 0.1 μg/mL, 0.01 μg/mL, or 0.001 μg/mL, 2.5 μL each) for 2 hr at RT. The FRET peptides (8 μM, 2.5 μL), and appropriate ATP solutions (2.5 μL, 800 μM for c-Src, and 60 μM ATP for Syk) are then added to the enzymes/compound mixtures and the mixture incubated for 1 hr. Development reagent (protease, 5 μL) is added for 1 hr prior to detection in a fluorescence microplate reader (Varioskan® Flash, ThermoFisher Scientific).
as §2

Data set [3] addresses Syk (Homo sapiens (Human), UniProt P43405). Put plainly: Syk enzyme inhibition, Z-LYTE FRET. The class given is biochemical. Here is the method:
as §1
The relevant enzyme (3000 ng/mL or 2000 ng/mL respectively, 2.5 μL) is incubated with the test compound (either 1 μg/mL, 0.1 μg/mL, 0.01 μg/mL, or 0.001 μg/mL, 2.5 μL each) for 2 hr at RT. The FRET peptides (8 μM, 2.5 μL), and appropriate ATP solutions (2.5 μL, 800 μM for c-Src, and 60 μM ATP for Syk) are then added to the enzymes/compound mixtures and the mixture incubated for 1 hr. Development reagent (protease, 5 μL) is added for 1 hr prior to detection in a fluorescence microplate reader (Varioskan® Flash, ThermoFisher Scientific).
as §2

For data set [4], the system named is mitosis in PBMCs. Nature of the data set: (g) Cell mitosis assay. The class given is cell-based. The following applies: Homo sapiens, PBMC, 5 μg/mL. Here is the method:
Peripheral blood mononucleocytes (PBMCs) from healthy subjects are separated from whole blood (Quintiles, London, UK) using a density gradient (Histopaque®-1077, Sigma-Aldrich, Poole, UK). The PBMCs (3 million cells per sample) are subsequently treated with 2% PHA (phytohaemagglutinin, Sigma-Aldrich, Poole, UK) for 48 hr, followed by a 20 hr exposure to varying concentrations of test compounds. At 2 hr before collection, PBMCs are treated with demecolcine (0.1 μg/mL; Invitrogen, Paisley, UK) to arrest cells in metaphase. To observe mitotic cells, PBMCs are permeabilized and fixed by adding Intraprep (50 μL; Beckman Coulter, France), and stained with anti-phospho-histone 3 ([…]; #9701; Cell Signalling, Danvers, Mass.) and propidium iodide (1 mg/mL; Sigma-Aldrich, Poole, UK) as previously described (Muehlbauer P. A. and Schuler M. J., Mutation Research, 2003, 537:117-130). Fluorescence is observed using an ATTUNE flow cytometer (Invitrogen, Paisley, UK), gating for lymphocytes.

For data set [5], the system named is Jurkat cells. Put plainly: (r) Cell cytotoxicity assay. Format: cell-based, human. The following applies: 24 hours. An outline of the steps:
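Viability read by flow cytometry as the fraction of propidium iodide-negative cells (7.5 μg/mL PI, 15 min), relative to 1.0% DMSO control. Beforehand, 1×10^5 Jurkat cells in RPMI/10% FBS were treated 24 h at 37° C., 5% CO2 with test compound at final 20, 5 or 1 μg/mL.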

Chain of p38 MAPKα (MAPK14) (Q16539 whole entry): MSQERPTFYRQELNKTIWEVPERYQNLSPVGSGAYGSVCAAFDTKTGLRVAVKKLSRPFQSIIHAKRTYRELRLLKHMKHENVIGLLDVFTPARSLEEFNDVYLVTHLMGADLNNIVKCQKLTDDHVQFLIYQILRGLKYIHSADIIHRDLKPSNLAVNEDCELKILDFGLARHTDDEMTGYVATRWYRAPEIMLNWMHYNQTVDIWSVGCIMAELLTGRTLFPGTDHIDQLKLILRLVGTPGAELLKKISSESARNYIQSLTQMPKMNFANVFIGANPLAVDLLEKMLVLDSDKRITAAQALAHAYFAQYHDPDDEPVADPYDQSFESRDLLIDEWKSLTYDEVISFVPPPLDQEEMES
Chain of c-Src (P12931 whole entry, looked up): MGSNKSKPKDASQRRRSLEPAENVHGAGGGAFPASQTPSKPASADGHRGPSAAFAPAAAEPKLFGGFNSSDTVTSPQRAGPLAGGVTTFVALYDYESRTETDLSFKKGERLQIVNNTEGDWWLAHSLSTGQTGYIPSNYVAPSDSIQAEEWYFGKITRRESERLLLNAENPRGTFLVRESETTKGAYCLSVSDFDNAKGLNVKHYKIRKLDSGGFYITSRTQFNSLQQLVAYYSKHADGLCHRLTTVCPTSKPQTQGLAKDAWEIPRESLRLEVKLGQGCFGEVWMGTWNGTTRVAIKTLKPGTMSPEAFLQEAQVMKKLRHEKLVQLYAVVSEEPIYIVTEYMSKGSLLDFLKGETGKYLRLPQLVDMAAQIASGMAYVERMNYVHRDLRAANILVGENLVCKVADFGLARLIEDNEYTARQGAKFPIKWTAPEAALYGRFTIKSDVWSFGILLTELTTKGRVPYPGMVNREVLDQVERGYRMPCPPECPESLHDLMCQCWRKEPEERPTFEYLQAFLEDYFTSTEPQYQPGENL

Take `COc1cc(Nc2cc(Oc3ccc(NC(=O)Nc4cc(C(C)(C)C)cc(NS(C)(=O)=O)c4OC)c4ccccc34)ccn2)ccc1C(=O)NCCN1CC[S+]([O-])CC1` [Example 7, 4-((4-((4-(3-(5-(tert-Butyl)-2-methoxy-3-(methylsulfonamido)phenyl)ureido)naphthalen-1-yl)oxy)pyridin-2-yl)amino)-2-methoxy-N-(2-(1-oxidothiomorpholino)ethyl)benzamide]: the IC50 in data set [1] came to 59 nM; in data set [2], 21 nM; in data set [3] it was 107 nM. Besides, in data set [4], the inhibition at 5 µg/mL was determined as 59.9%.
Consider `COc1c(NC(=O)Nc2ccc(Oc3ccnc(Nc4ccc(C(=O)NCCN5CCOCC5)cc4)c3)c3ccccc23)cc(C(C)(C)C)cc1NS(C)(=O)=O` [17(u), 4-[[4-[[4-[[5-tert-butyl-3-(methanesulfonamido)-2-methoxy-phenyl]carbamoylamino]-1-naphthyl]oxy]-2-pyridyl]amino]-N-(2-morpholinoethyl)benzamide], for which the inhibition at 5 µg/mL in data set [4] stood at 86.9%.
For `COc1cc(Nc2cc(Oc3ccc(NC(=O)Nc4cc(C(C)(C)C)cc(NS(C)(=O)=O)c4OC)c4ccccc34)ccn2)ccc1C(=O)N[C@@H](C)CN1CCOCC1` [17(v), 4-[[4-[[4-[[5-tert-butyl-3-(methanesulfonamido)-2-methoxy-phenyl]carbamoylamino]-1-naphthyl]oxy]-2-pyridyl]amino]-2-methoxy-N-[(1S)-1-methyl-2-morpholino-ethyl]benzamide], the values for the IC50 in data set [1], in data set [2] and in data set [3] were 116 nM, 43 nM and 232 nM, respectively. Also, in data set [4], the inhibition at 5 µg/mL worked out at 34.4%.
As to `COc1cc(Nc2cc(Oc3ccc(NC(=O)Nc4cc(C(C)(C)C)cc(C(N)=O)c4OC)c4ccccc34)ccn2)ccc1C(=O)NCCN1CCOCC1` [Example 4, 4-((4-((4-(3-(5-(tert-Butyl)-3-carbamoyl-2-methoxyphenyl)ureido)naphthalen-1-yl)oxy)pyridin-2-yl)amino)-2-methoxy-N-(2-morpholinoethyl)benzamide], the IC50 in data set [1] came to 121 nM; in data set [2], 37 nM; in data set [3] it was 277 nM. Further, the inhibition at 5 µg/mL in data set [4] was found to be 46.2%.
Take `COc1cc(Nc2cc(Oc3ccc(NC(=O)Nc4cc(C(C)(C)C)cc(NS(C)(=O)=O)c4OC)c4ccccc34)ccn2)ccc1C(=O)NCCN1CCCOCC1` [17(ai), 4-[[4-[[4-[[5-tert-butyl-3-(methanesulfonamido)-2-methoxy-phenyl]carbamoylamino]-1-naphthyl]oxy]-2-pyridyl]amino]-2-methoxy-N-[2-(1,4-oxazepan-4-yl)ethyl]benzamide]: the IC50 was 14 nM in data set [2] and 86 nM in data set [3]. Also, in data set [4], 5 µg/mL produced 89.1% inhibition.
`COc1cc(Nc2cc(Oc3ccc(NC(=O)Nc4cc(C(C)(C)C)cc(NS(C)(=O)=O)c4OC)c4ccccc34)ccn2)ccc1C(=O)NCCN1CCN(CCO)CC1` [17(z), 4-[[4-[[4-[[5-tert-butyl-3-(methanesulfonamido)-2-methoxy-phenyl]carbamoylamino]-1-naphthyl]oxy]-2-pyridyl]amino]-N-[2-[4-(2-hydroxyethyl)piperazin-1-yl]ethyl]-2-methoxy-benzamide]: at 5 µg/mL the inhibition in data set [4] was 69.7%. Besides, in data set [5], the “% Viability at 1 μg/mL” value worked out at 102.9%, the “% Viability at 5 μg/mL” value came out at 70.9% and the “% Viability at 20 μg/mL” value is recorded as 2.0%.
Take `COCCN(C)CCNC(=O)c1ccc(Nc2cc(Oc3ccc(NC(=O)Nc4cc(C(C)(C)C)cc(NS(C)(=O)=O)c4OC)c4ccccc34)ccn2)cc1OC` [17(ad), 4-[[4-[[4-[[5-tert-butyl-3-(methanesulfonamido)-2-methoxy-phenyl]carbamoylamino]-1-naphthyl]oxy]-2-pyridyl]amino]-2-methoxy-N-[2-[2-methoxyethyl(methyl)amino]ethyl]-benzamide]: in data set [4], the inhibition at 5 µg/mL is 93.4%. For the same molecule, in data set [5], the “% Viability at 1 μg/mL” value is reported as 101.4%, the “% Viability at 5 μg/mL” value was 6.3% and the “% Viability at 20 μg/mL” value came out at 0.4%.
As for `COc1cc(Nc2cc(Oc3ccc(NC(=O)Nc4cc(C(C)(C)C)cc(NS(C)(=O)=O)c4OC)c4ccccc34)ccn2)ccc1C(=O)NCCN(C)CCO` [17(ac), 4-[[4-[[4-[[5-tert-butyl-3-(methanesulfonamido)-2-methoxy-phenyl]carbamoylamino]-1-naphthyl]oxy]-2-pyridyl]amino]-N-[2-[2-hydroxyethyl(methyl)amino]ethyl]-2-methoxy-benzamide], in data set [4], testing at 5 µg/mL gave an inhibition of 85.8%.
`COc1cc(Nc2cc(Oc3ccc(NC(=O)Nc4cc(C(C)(C)C)cc(NS(C)(=O)=O)c4OC)c4ccccc34)ccn2)ccc1C(=O)NCCN1CCC(F)(F)CC1` [17(al), 4-[[4-[[4-[[5-tert-butyl-3-(methanesulfonamido)-2-methoxy-phenyl]carbamoylamino]-1-naphthyl]oxy]-2-pyridyl]amino]-N-[2-(4,4-difluoro-1-piperidyl)ethyl]-2-methoxy-benzamide]: 5 µg/mL produced 21.2% inhibition in data set [4].
In data set [4], `COc1cc(Nc2cc(Oc3ccc(NC(=O)Nc4cc(C(C)(C)C)cc(NS(C)(=O)=O)c4OC)c4ccccc34)ccn2)ccc1C(=O)NCCCCN1CCOCC1` [17(y), 4-[[4-[[4-[[5-tert-butyl-3-(methanesulfonamido)-2-methoxy-phenyl]carbamoylamino]-1-naphthyl]oxy]-2-pyridyl]amino]-2-methoxy-N-(4-morpholinobutyl)benzamide] displayed an inhibition at 5 µg/mL of 70.8%.
On to `COc1cc(Nc2cc(Oc3ccc(NC(=O)Nc4cc(C(C)(C)C)cc(NS(C)(=O)=O)c4OC)c4ccccc34)ccn2)ccc1C(=O)NCCCN1CCCOCC1` [17(aj), 4-[[4-[[4-[[5-tert-butyl-3-(methanesulfonamido)-2-methoxy-phenyl]carbamoylamino]-1-naphthyl]oxy]-2-pyridyl]amino]-2-methoxy-N-[3-(1,4-oxazepan-4-yl)propyl]benzamide], for which the values for the IC50 in data set [2] and in data set [3] were 12 nM and 33 nM, respectively. In data set [4], this molecule came in with an inhibition at 5 µg/mL of 94.9%.
Consider `COc1cc(Nc2cc(Oc3ccc(NC(=O)Nc4cc(C(C)(C)C)cc(NS(C)(=O)=O)c4OC)c4ccccc34)ccn2)ccc1C(=O)NCC1CCN(C)CC1` [17(ak), 4-[[4-[[4-[[5-tert-butyl-3-(methanesulfonamido)-2-methoxy-phenyl]carbamoylamino]-1-naphthyl]oxy]-2-pyridyl]amino]-2-methoxy-N-[(1-methyl-4-piperidyl)methyl]benzamide], for which the midpoint of inhibition in data set [2], the IC50, lay at 12 nM. In data set [3], the IC50 was found to be 85 nM. Besides, the inhibition at 5 µg/mL in data set [4] is 74.7%. In data set [5], the “% Viability at 1 μg/mL” value is 99.0%, the “% Viability at 5 μg/mL” value is given as 69.5% and the “% Viability at 20 μg/mL” value turned out to be 0.4%.

Usually IC50 stands for the concentration needed to halve the response being measured. A word on the inhibition: it is the percentage by which the read-out fell short of the control. A higher inhibition goes with a response far below the control.

The values above are taken from patent US10125100B2, “Kinase inhibitors” (Respivert Limited, priority 2014, dated 2018).
